Measurements reported in patent publication US20250115571A1, “OXOPIPERAZINE DERIVATIVES” (Inthera Bioscience AG, priority 2017, published 2025).

Test system: CaSki cells
Assay: Colony Formation Assay (CFA), 14 days
Type: cell-based
Details: Homo sapiens, Ca-Ski, 336 h, colony formation assay, class by % inhibition at 0.7, 6 or 50 μM
Description: Cell culture: CaSki cells were obtained from CLS GmbH, Eppelheim, Germany (cat. 300145) and subcultured in ready-to-use RPMI1640 Media (CLS GmbH cat. 820700) after addition of “Antibiotic Antimycotic Solution” (Sigma-Aldrich, St Louis, USA, cat. A5955) at 1:100 dilution. CaSki cells were expanded and aliquots kept frozen in liquid nitrogen according to manufacturer's instructions. Once thawed, aliquots were passaged every second or third day at a seed density of 20′000 cells/cm^2; and used for a maximum of twenty passages.
Preparation of the cells for CFA: Cell culture flasks were rinsed twice with Ca++/Mg++-free Phosphate-Buffered Saline (DPBS, CLS GmbH cat. 860015) and incubated with Accutase (CLS GmbH cat. 830100) for 15 min at 37° C. Cells were resuspended in a four-fold volume of ready-to use RPMI, centrifuged at 300 g for 10 minutes, the supernatant discarded and the cells resuspended in ready-to-use RPMI1640 by pipetting up and down ten times with a serological pipette. Cell density was determined with a Via-1 Cassette (Chemometec, Allerod, Denmark) on a Nucleocounter NC 3000 (Chemometec). The required amount of cells was first diluted 1:10 in ready-to-use RPMI; cells pipetted five times up-down with a serological pipette; and the 1:10 solution added to the final volume needed for the whole assay setup. Cells were mixed again by pipetting up and down twenty times with a serological pipette. The final cell density was 70 cells/ml.
Seeding: Cells were seeded column-wise in 6-well plates, while triplicates were treated row-wise. Three ml cell suspension solution (210 cells) were added per well.
Treatment: Compound stock solutions were prepared at a concentration of 30 mM in 50% DMSO/50% water; and diluted in the same solution so that the volume added to the wells was of 5 μl and the final DMSO well concentration 0.08%. Untreated cells (negative controls) were incubated in a) medium only; and b) 0.08% DMSO. […] Tests showing less than 75% or more than 95% inhibition were repeated. The plates were swirled gently after addition of the compounds and the cells incubated for 14 days at 37° C. Culture incubation solutions were replaced after one week.
Staining: Colonies were washed twice with ice-cold DPBS and fixed on ice with 1 ml ice-cold 10% methanol solution for 30 min. The methanol solution was removed and colonies incubated with 0.1% Crystal Violet/DBPS for 20 min at room temperature. The wells were rinsed with water at room temperature, let dry and colonies were counted. Compounds e.g., compounds of Table 2 and 3 were classified as follows: […]

CC(C)C[C@@H]1NCCN([C@H](C(=O)N2CCC(CC(N)=O)CC2)C(C)C)C1=O [Compound 90, (1-{(S)-2-[(S)-3-Isobutyl-2-oxo-1-piperazinyl]-3-methylbutyryl}-4-piperidyl)acetamide]
inhibition at 0.7 µM: < 0%

CC(C)(C)C[C@@H](C(=O)N1CCC(CC(N)=O)CC1)N1CCN[C@@H](CC2CC2)C1=O [Compound 94, (1-{(S)-2-[(S)-3-(Cyclopropylmethyl)-2-oxo-1-piperazinyl]-4,4-dimethylvaleryl}-4-piperidyl)acetamide]
inhibition at 0.7 µM: < 0%

CCCC[C@@H]1NCCN([C@@H](CC2CC2)C(=O)N2CCC(CC(N)=O)CC2)C1=O [Compound 106, (1-{(S)-2-[(S)-3-Butyl-2-oxo-1-piperazinyl]-3-cyclopropylpro-pionyl}-4-piperidyl)acetamide]
inhibition at 0.7 µM: < 0%

CC(C)C[C@@H](C(=O)N1CCC(CC(N)=O)CC1)N1CCN[C@@H](CC(C)(C)C)C1=O [Compound 114, (1-{(S)-2-[(S)-3-Neopentyl-2-oxo-1-piperazinyl]-4-methylvaleryl}-4-piperidyl)acetamide]
inhibition at 0.7 µM: < 0%

CC(C)C[C@@H]1NCCN([C@@H](CC(C)C)C(=O)N2CCC3(C[C@@H]2C)OCC(c2nccn2C)CO3)C1=O (stereo partly drawn) [Compound 260, (S)-1-[(S)-1-({(S)-8-Methyl-3-(1-methyl-1H-imidazol-2-yl)-1,5-dioxa-9-aza-9-spiro[5.5]un-decyl}carbonyl)-3-methylbutyl]-3-isobutyl-2-piperazinone]
inhibition at 0.7 µM: < 0%

CC(C)C[C@@H]1NCCN([C@@H](CC(C)C)C(=O)N2CCC3(C[C@@H]2C)OCC(c2ccccn2)CO3)C1=O (stereo partly drawn) [Compound 285, (S)-1-[(S)-1-({(S)-8-Methyl-3-(2-pyridyl)-1,5-dioxa-9-aza-9-spiro[5.5]un-decyl}carbonyl)-3-methylbutyl]-3-isobutyl-2-piperazinone]
inhibition at 0.7 µM: < 0%

CC(C)C[C@@H]1NCCN([C@@H](CC(C)C)C(=O)N2CCC3(C[C@@H]2C)O[C@H]2C[C@@H](N(C)C)C[C@H]2O3)C1=O (stereo partly drawn) [Compound 292, (S)-1-[(S)-1-({(1R,5S,2′S)-7-(Dimethylamino)-2′-methylspiro[2.4-di-oxabicyclo[3.3.0]oc-tane-3,4′-piperidin]-1′-yl}carbonyl)-3-methylbutyl]-3-isobutyl-2-piperazinone]
inhibition at 0.7 µM: < 0%

CC(C)C[C@@H]1NCCN([C@@H](CC(C)C)C(=O)N2CCC3(C[C@@H]2C)O[C@H]2CN(C)CC[C@H]2O3)C1=O (stereo partly drawn) [Compound 296]
inhibition at 0.7 µM: < 0%

CC(C)C[C@@H]1NCCN([C@@H](CC(C)C)C(=O)N2CCC3(C[C@@H]2C)OC2CN(C)C[C@@H]2O3)C1=O (stereo partly drawn) [Compound 300, (S)-1-[(S)-1-({(2′S)-7-Methyl-2′-methylspiro[2.4-dioxa-7-azabicyclo[3.3.0]oc-tane-3,4′-piperidin]-1′-yl}carbonyl)-3-methylbutyl]-3-isobutyl-2-piperazinone]
inhibition at 0.7 µM: < 0%
